Measured values from ChEMBL document CHEMBL3885881, “DrugMatrix”.

Species on record: Rattus norvegicus
Assay: DrugMatrix - Regimen: Daily Repeat
Type: toxicity, organism-based, Sprague-Dawley
Parameters: regimen Daily Repeat, gender Male, age 6-8 weeks
Settings: in vivo, po, route oral GAVAGE, […]; for CHLORIDE / CHOLESTEROL / CREATINE PHOSPHOKINASE / CREATININE / LACTATE DEHYDROGENASE / LIPASE / PHOSPHORUS / POTASSIUM / SODIUM / TOTAL BILIRUBIN / URIC ACID / ALANINE AMINOTRANSFERASE / ALBUMIN / ALKALINE PHOSPHATASE / ASPARTATE AMINOTRANSFERASE / BLOOD UREA NITROGEN / CARBON DIOXIDE: tissue Plasma; for ABSOLUTE BASOPHIL / ABSOLUTE EOSINOPHIL / ABSOLUTE LYMPHOCYTE / ABSOLUTE MONOCYTE / ABSOLUTE SEGMENTED NEUTROPHIL / BASOPHIL / EOSINOPHIL / ERYTHROCYTE COUNT / HEMATOCRIT / HEMOGLOBIN / LEUKOCYTE COUNT / LYMPHOCYTE / MEAN CORPUSCULAR HEMOGLOBIN / MEAN CORPUSCULAR HEMOGLOBIN CONCENTRATION / MEAN CORPUSCULAR VOLUME / NEUTROPHIL / NUCLEATED RED BLOOD CELLS / PLATELET COUNT: tissue Blood
[1] = 10 mg/kg, 120 h, dose level High, time 5 day
[2] = 72 h, dose 3.5 mg/Kg, dose level Low, time 3 day
[3] = 120 h, dose 3.5 mg/Kg, dose level High, time 5 day
[4] = 120 h, dose 3.5 mg/Kg, dose level Low, time 5 day
[5] = dose 3.5 mg/Kg, dose level High, time 28 day

SMILES: O=C(O)Cc1ccccc1Nc1c(Cl)cccc1Cl [DICLOFENAC]
- CHLORIDE [1]: 99 MEQ/L
- CHOLESTEROL [1]: 69.33 mg/dL
- CREATINE PHOSPHOKINASE [1]: 210.67 u/L
- CREATININE [1]: 0.1 mg/dL
- LACTATE DEHYDROGENASE [1]: 77.33 u/L
- LIPASE [1]: 9 u/L
- PHOSPHORUS [1]: 9.63 mg/dL
- POTASSIUM [1]: 5.24 MEQ/L
- SODIUM [1]: 140.7 MEQ/L
- TOTAL BILIRUBIN [1]: 0.1 mg/dL
- URIC ACID [1]: 0.57 mg/dL
- ABSOLUTE BASOPHIL [2]: 0 CELLS/uL
- ABSOLUTE EOSINOPHIL [2]: 99.33 CELLS/uL
- ABSOLUTE LYMPHOCYTE [2]: 11383.33 CELLS/uL
- ABSOLUTE MONOCYTE [2]: 144 CELLS/uL
- ABSOLUTE SEGMENTED NEUTROPHIL [2]: 540 CELLS/uL
- BASOPHIL [2]: 0%
- EOSINOPHIL [2]: 0.67%
- ERYTHROCYTE COUNT [2]: 5.83 x10E6/uL
- HEMATOCRIT [2]: 36.37%
- HEMOGLOBIN [2]: 14 G/DL
- LEUKOCYTE COUNT [2]: 12.17 x10E3/uL
- LYMPHOCYTE [2]: 92.67%
- MEAN CORPUSCULAR HEMOGLOBIN [2]: 24.03 pg
- MEAN CORPUSCULAR HEMOGLOBIN CONCENTRATION [2]: 38.47 G/DL
- MEAN CORPUSCULAR VOLUME [2]: 62.37 fL
- NEUTROPHIL [2]: 5.33%
- NUCLEATED RED BLOOD CELLS [2]: 0 /100WBC
- PLATELET COUNT [2]: 741.67 x10E3/uL
- ALANINE AMINOTRANSFERASE [2]: 65.67 u/L
- ALBUMIN [2]: 4.03 G/DL
- ALKALINE PHOSPHATASE [2]: 385.67 u/L
- ASPARTATE AMINOTRANSFERASE [2]: 76.33 u/L
- BLOOD UREA NITROGEN [2]: 14 mg/dL
- CARBON DIOXIDE [2]: 34 mmol/L
- CHLORIDE [2]: 101 MEQ/L
- CHOLESTEROL [2]: 82.33 mg/dL
- CREATINE PHOSPHOKINASE [2]: 146 u/L
- CREATININE [2]: 0.13 mg/dL
- LACTATE DEHYDROGENASE [2]: 92.67 u/L
- LIPASE [2]: 12.33 u/L
- PHOSPHORUS [2]: 9.37 mg/dL
- POTASSIUM [2]: 5.57 MEQ/L
- SODIUM [2]: 145.37 MEQ/L
- TOTAL BILIRUBIN [2]: 0.2 mg/dL
- URIC ACID [2]: 0.93 mg/dL
- BASOPHIL [3]: 0.32%
- EOSINOPHIL [3]: 0.48%
- ERYTHROCYTE COUNT [3]: 7.46 x10E6/uL
- HEMATOCRIT [3]: 47.98%
- HEMOGLOBIN [3]: 15.12 G/DL
- LEUKOCYTE COUNT [3]: 9.78 x10E3/uL
- LYMPHOCYTE [3]: 81.22%
- MEAN CORPUSCULAR HEMOGLOBIN [3]: 20.28 pg
- MEAN CORPUSCULAR HEMOGLOBIN CONCENTRATION [3]: 31.52 G/DL
- MEAN CORPUSCULAR VOLUME [3]: 64.32 fL
- NEUTROPHIL [3]: 15.22%
- PLATELET COUNT [3]: 1323.2 x10E3/uL
- ABSOLUTE BASOPHIL [4]: 0 CELLS/uL
- ABSOLUTE EOSINOPHIL [4]: 66 CELLS/uL
- ABSOLUTE LYMPHOCYTE [4]: 7679.67 CELLS/uL
- ABSOLUTE MONOCYTE [4]: 26 CELLS/uL
- ABSOLUTE SEGMENTED NEUTROPHIL [4]: 795 CELLS/uL
- BASOPHIL [4]: 0%
- EOSINOPHIL [4]: 0.67%
- ERYTHROCYTE COUNT [4]: 5.41 x10E6/uL
- HEMATOCRIT [4]: 32.77%
- HEMOGLOBIN [4]: 13.13 G/DL
- LEUKOCYTE COUNT [4]: 8.57 x10E3/uL
- LYMPHOCYTE [4]: 90%
- MEAN CORPUSCULAR HEMOGLOBIN [4]: 24.33 pg
- MEAN CORPUSCULAR HEMOGLOBIN CONCENTRATION [4]: 40.1 G/DL
- MEAN CORPUSCULAR VOLUME [4]: 60.7 fL
- NEUTROPHIL [4]: 9%
- NUCLEATED RED BLOOD CELLS [4]: 0.33 /100WBC
- PLATELET COUNT [4]: 1098.67 x10E3/uL
- ALANINE AMINOTRANSFERASE [3]: 32 u/L
- ALBUMIN [3]: 3.72 G/DL
- ALKALINE PHOSPHATASE [3]: 340 u/L
- ASPARTATE AMINOTRANSFERASE [3]: 77.6 u/L
- BLOOD UREA NITROGEN [3]: 6.8 mg/dL
- CHLORIDE [3]: 110 MEQ/L
- CHOLESTEROL [3]: 66.4 mg/dL
- CREATINE PHOSPHOKINASE [3]: 178.25 u/L
- CREATININE [3]: 0.26 mg/dL
- PHOSPHORUS [3]: 13.9 mg/dL
- POTASSIUM [3]: 6.42 MEQ/L
- SODIUM [3]: 150.8 MEQ/L
- TOTAL BILIRUBIN [3]: 0.16 mg/dL
- ALANINE AMINOTRANSFERASE [4]: 70.33 u/L
- ALBUMIN [4]: 4 G/DL
- ALKALINE PHOSPHATASE [4]: 422.67 u/L
- ASPARTATE AMINOTRANSFERASE [4]: 77.67 u/L
- CARBON DIOXIDE [4]: 32 mmol/L
- CHLORIDE [4]: 99.5 MEQ/L
- CHOLESTEROL [4]: 58.67 mg/dL
- CREATININE [4]: 0.13 mg/dL
- LACTATE DEHYDROGENASE [4]: 79 u/L
- LIPASE [4]: 12.33 u/L
- PHOSPHORUS [4]: 9.27 mg/dL
- POTASSIUM [4]: 5.62 MEQ/L
- SODIUM [4]: 142.7 MEQ/L
- TOTAL BILIRUBIN [4]: 0.2 mg/dL
- URIC ACID [4]: 0.5 mg/dL
- BASOPHIL [5]: 0.51%
- EOSINOPHIL [5]: 0.62%
- ERYTHROCYTE COUNT [5]: 8.14 x10E6/uL
- HEMATOCRIT [5]: 48.9%
- HEMOGLOBIN [5]: 15.9 G/DL
- LEUKOCYTE COUNT [5]: 10.63 x10E3/uL
- LYMPHOCYTE [5]: 82.51%
- MEAN CORPUSCULAR HEMOGLOBIN [5]: 19.56 pg
- MEAN CORPUSCULAR HEMOGLOBIN CONCENTRATION [5]: 32.5 G/DL
- MEAN CORPUSCULAR VOLUME [5]: 60.18 fL
- NEUTROPHIL [5]: 13.48%
- PLATELET COUNT [5]: 1264.5 x10E3/uL
- ALANINE AMINOTRANSFERASE [5]: 29.7 u/L
- ALBUMIN [5]: 3.93 G/DL
- ALKALINE PHOSPHATASE [5]: 205 u/L
- ASPARTATE AMINOTRANSFERASE [5]: 68.5 u/L
- BLOOD UREA NITROGEN [5]: 12.1 mg/dL
- CHLORIDE [5]: 109.6 MEQ/L
- CHOLESTEROL [5]: 55.2 mg/dL
- CREATINE PHOSPHOKINASE [5]: 206.4 u/L
- CREATININE [5]: 0.51 mg/dL
- PHOSPHORUS [5]: 11.24 mg/dL
- POTASSIUM [5]: 6.38 MEQ/L
- SODIUM [5]: 154.6 MEQ/L
- TOTAL BILIRUBIN [5]: 0.21 mg/dL
